What was measured:
Assay in all cases: Kinase Profiler 10 μM panel
Flt3(h) = Flt3(h) (Homo sapiens (Human), UniProt P36888)
Protocol: (§1) In vitro kinase assays were conducted using Kinase Profiler services provided by Eurofins. The experimental method was as follows: the small molecule compound to be tested (0.001-10 μM), the protein kinase to be tested were incubated with a buffer containing substrate, 10 mM magnesium acetate, and [γ-^33P-ATP], the reaction was started by adding Mg\TPmix, after incubation for a period of time at room temperature, a 3% phosphate solution was added to the buffer to stop the reaction. Subsequently, 10 μL of the reaction mixture was quantitatively pipetted onto P30 filter paper, which was washed three times with 75 mM phosphate solution and then once with methanol. The P30 filter paper was air-dried and scintillation fluid was added for scintillation counting.

GCK(h) = GCK(h) (Homo sapiens (Human), UniProt Q12851)
Protocol: as §1

PI3KC2a(h) = PI3KC2a(h) (Homo sapiens (Human), UniProt O00443)
Protocol: as §1

A-Raf(h) = A-Raf(h) (Homo sapiens (Human), UniProt P10398)
Protocol: as §1

Pim-2(h) = Pim-2(h) (Homo sapiens (Human), UniProt Q9P1W9)
Protocol: as §1

PIP4K2a(h) = PIP4K2a(h) (Homo sapiens (Human), UniProt P48426)
Protocol: as §1

ARK5(h) = ARK5(h) (Homo sapiens (Human), UniProt O60285)
Protocol: as §1

PIP5K1g(h) = PIP5K1g(h) (Homo sapiens (Human), UniProt O60331)
Protocol: as §1

BIKe(h) = BIKe(h) (Homo sapiens (Human), UniProt Q9NSY1)
Protocol: as §1

BrSK1(h) = BrSK1(h) (Homo sapiens (Human), UniProt Q8TDC3)
Protocol: as §1

BTK(R28H)(h) = BTK(R28H)(h) (Homo sapiens (Human), UniProt Q06187, R28H)
Protocol: as §1

CaMKIIβ(h) = CaMKIIβ(h) (Homo sapiens (Human), UniProt Q13554)
Protocol: as §1

JAK2(h) = JAK2(h) (Homo sapiens (Human), UniProt O60674)
Protocol: as §1

JAK3(h) = JAK3(h) (Homo sapiens (Human), UniProt P52333)
Protocol: as §1

JNK1α1(h) = JNK1α1(h) (Homo sapiens (Human), UniProt P45983)
Protocol: as §1

CaMKIV(h) = CaMKIV(h) (Homo sapiens (Human), UniProt Q16566)
Protocol: as §1

JNK3(h) = JNK3(h) (Homo sapiens (Human), UniProt P53779)
Protocol: as §1

CDK1/cyclinB(h) = CDK1/cyclinB(h) (Homo sapiens (Human), UniProt P06493)
Protocol: as §1

Lyn(h) = Lyn(h) (Homo sapiens (Human), UniProt P07948)
Protocol: as §1

CDK7/cyclinH/MAT1(h) = CDK7/cyclinH/MAT1(h) (Homo sapiens (Human), UniProt P50613)
Chain of CDK7/cyclinH/MAT1(h) (P50613 whole entry): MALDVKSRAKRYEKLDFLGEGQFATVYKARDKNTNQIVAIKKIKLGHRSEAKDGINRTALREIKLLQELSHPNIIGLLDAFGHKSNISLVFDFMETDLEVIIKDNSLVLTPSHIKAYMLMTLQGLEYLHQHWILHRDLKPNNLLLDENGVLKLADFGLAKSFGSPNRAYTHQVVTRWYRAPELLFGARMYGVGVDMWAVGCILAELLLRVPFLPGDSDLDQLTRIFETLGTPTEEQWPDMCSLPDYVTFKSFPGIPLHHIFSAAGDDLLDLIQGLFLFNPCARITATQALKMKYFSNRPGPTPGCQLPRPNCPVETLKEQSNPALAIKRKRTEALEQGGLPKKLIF
Chain of CDK7/cyclinH/MAT1(h) (P51946 whole entry partner): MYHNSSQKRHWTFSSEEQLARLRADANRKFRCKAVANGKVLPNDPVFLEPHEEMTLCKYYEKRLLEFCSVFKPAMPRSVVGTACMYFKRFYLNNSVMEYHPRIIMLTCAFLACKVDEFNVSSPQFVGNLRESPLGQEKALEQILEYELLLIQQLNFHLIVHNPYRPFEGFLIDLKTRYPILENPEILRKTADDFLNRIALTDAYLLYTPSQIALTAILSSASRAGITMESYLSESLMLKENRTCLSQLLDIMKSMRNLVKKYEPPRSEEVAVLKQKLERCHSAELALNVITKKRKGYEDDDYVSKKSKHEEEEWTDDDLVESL
Chain of CDK7/cyclinH/MAT1(h) (P51948 whole entry partner): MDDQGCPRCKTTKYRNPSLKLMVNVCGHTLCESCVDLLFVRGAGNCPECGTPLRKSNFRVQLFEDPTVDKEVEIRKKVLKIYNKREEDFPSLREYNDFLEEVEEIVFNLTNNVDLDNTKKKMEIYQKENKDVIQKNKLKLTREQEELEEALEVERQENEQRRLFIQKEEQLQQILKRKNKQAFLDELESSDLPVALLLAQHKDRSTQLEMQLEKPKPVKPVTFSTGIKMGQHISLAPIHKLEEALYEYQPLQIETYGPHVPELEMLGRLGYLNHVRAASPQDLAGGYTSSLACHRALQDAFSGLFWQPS
Protocol: as §1

Rsk1(h) = Rsk1(h) (Homo sapiens (Human), UniProt Q15418)
Protocol: as §1

MARK3(h) = MARK3(h) (Homo sapiens (Human), UniProt P27448)
Protocol: as §1

SAPK2b(h) = SAPK2b(h) (Homo sapiens (Human), UniProt Q15759)
Protocol: as §1

MEKK3(h) = MEKK3(h) (Homo sapiens (Human), UniProt Q99759)
Protocol: as §1

SAPK3(h) = SAPK3(h) (Homo sapiens (Human), UniProt P53778)
Protocol: as §1

STK16(h) = STK16(h) (Homo sapiens (Human), UniProt O75716)
Chain of STK16(h) (O75716 whole entry): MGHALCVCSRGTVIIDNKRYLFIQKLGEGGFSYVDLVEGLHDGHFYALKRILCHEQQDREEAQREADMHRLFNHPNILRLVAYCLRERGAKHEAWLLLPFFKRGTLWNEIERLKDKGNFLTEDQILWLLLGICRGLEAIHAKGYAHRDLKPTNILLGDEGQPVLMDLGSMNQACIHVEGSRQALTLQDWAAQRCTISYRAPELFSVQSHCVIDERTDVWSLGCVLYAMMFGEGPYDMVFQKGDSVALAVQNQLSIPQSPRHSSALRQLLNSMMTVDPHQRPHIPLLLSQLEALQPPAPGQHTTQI
Protocol: as §1

STK32C(h) = STK32C(h) (Homo sapiens (Human), UniProt Q86UX6)
Chain of STK32C(h) (Q86UX6 whole entry): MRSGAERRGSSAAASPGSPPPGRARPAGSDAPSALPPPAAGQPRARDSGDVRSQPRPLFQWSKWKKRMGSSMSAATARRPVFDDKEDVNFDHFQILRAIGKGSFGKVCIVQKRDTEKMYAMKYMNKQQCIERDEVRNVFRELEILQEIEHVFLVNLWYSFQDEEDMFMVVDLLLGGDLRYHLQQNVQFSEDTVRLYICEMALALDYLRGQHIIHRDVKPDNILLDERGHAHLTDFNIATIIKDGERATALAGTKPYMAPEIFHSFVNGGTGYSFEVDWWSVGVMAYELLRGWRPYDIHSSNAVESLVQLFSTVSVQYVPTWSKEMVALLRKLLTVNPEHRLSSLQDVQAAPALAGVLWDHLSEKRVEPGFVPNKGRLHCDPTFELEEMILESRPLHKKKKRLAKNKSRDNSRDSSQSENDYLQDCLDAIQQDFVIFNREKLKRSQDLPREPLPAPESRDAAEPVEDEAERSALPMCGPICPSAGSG
Protocol: as §1

Syk(h) = Syk(h) (Homo sapiens (Human), UniProt P43405)
Protocol: as §1

DAPK1(h) = DAPK1(h) (Homo sapiens (Human), UniProt P53355)
Protocol: as §1

DCAMKL2(h) = DCAMKL2(h) (Homo sapiens (Human), UniProt Q8N568)
Protocol: as §1

EphB3(h) = EphB3(h) (Homo sapiens (Human), UniProt P54753)
Protocol: as §1

EphB4(h) = EphB4(h) (Homo sapiens (Human), UniProt P54760)
Chain of EphB4(h) (P54760 16-987): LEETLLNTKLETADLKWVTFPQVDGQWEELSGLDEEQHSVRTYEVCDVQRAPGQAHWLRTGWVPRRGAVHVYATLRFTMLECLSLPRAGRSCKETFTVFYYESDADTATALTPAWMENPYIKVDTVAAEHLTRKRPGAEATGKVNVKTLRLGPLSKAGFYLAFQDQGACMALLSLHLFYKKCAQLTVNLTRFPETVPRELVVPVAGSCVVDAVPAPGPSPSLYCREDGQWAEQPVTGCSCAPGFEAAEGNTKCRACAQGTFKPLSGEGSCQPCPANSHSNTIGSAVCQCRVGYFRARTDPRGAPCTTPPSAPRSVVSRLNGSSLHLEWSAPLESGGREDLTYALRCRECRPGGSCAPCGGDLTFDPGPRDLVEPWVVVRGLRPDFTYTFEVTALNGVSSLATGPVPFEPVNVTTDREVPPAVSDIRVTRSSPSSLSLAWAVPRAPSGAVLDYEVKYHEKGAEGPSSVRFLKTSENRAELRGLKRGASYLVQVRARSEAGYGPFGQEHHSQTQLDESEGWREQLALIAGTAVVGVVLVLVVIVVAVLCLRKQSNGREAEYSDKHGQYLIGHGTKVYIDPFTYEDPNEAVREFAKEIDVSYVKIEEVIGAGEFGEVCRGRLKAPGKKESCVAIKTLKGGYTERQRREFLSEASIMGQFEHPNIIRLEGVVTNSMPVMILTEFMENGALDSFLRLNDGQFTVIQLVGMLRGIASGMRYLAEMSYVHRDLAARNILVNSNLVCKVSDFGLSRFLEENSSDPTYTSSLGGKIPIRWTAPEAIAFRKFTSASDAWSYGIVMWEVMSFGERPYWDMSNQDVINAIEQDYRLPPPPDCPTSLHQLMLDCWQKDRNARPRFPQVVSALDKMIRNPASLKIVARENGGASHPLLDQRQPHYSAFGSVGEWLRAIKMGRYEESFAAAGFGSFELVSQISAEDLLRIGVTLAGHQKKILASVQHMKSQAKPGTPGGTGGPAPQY
Protocol: as §1

ErbB2(h) = ErbB2(h) (Homo sapiens (Human), UniProt P04626)
Protocol: as §1

PDHK4(h) = PDHK4(h) (Homo sapiens (Human), UniProt Q16654)
Protocol: as §1

Chain of PI3KC2a(h) (O00443 whole entry): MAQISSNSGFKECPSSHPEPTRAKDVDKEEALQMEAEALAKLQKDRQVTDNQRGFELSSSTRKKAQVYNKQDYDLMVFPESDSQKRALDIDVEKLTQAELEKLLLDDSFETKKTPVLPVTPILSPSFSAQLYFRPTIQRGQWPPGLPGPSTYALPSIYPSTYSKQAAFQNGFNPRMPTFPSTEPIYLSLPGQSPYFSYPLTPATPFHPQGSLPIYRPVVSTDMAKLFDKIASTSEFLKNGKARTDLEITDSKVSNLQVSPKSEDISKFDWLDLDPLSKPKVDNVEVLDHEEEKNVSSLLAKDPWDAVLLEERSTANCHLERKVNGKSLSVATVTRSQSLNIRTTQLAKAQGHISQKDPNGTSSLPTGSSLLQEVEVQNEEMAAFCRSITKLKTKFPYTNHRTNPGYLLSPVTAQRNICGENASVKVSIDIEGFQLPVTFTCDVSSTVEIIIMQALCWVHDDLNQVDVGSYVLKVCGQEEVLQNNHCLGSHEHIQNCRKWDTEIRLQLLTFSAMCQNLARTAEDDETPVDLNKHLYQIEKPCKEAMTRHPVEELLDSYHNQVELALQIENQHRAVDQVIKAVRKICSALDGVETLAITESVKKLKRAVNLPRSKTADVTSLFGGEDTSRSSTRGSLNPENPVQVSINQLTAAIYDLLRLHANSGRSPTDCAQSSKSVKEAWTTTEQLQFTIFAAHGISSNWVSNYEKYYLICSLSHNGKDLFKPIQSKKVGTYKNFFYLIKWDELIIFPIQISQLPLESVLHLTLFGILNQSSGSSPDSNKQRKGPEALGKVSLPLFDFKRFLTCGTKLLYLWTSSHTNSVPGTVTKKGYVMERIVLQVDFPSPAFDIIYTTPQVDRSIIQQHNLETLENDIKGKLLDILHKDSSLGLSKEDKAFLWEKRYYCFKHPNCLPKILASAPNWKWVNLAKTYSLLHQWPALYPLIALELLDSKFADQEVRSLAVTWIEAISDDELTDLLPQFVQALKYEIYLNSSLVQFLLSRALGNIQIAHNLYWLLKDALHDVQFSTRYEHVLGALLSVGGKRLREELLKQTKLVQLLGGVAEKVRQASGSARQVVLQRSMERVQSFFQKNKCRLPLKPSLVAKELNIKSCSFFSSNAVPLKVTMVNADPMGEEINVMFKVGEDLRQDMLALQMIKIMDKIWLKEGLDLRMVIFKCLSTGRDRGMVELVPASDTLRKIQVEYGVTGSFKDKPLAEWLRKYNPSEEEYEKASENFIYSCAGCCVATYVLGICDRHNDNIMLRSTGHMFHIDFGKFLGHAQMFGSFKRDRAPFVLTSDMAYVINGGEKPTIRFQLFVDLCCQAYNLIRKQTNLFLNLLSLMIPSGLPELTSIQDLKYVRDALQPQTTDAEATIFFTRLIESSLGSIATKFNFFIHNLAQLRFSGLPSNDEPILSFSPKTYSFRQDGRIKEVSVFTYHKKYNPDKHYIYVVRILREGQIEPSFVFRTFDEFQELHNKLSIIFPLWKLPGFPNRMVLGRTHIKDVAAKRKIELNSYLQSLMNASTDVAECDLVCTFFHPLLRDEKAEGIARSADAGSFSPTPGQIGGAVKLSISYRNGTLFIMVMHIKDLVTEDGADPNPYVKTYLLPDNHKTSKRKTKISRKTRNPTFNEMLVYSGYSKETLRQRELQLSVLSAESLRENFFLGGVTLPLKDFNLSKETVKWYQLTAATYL
Chain of PIP4K2a(h) (P48426 whole entry): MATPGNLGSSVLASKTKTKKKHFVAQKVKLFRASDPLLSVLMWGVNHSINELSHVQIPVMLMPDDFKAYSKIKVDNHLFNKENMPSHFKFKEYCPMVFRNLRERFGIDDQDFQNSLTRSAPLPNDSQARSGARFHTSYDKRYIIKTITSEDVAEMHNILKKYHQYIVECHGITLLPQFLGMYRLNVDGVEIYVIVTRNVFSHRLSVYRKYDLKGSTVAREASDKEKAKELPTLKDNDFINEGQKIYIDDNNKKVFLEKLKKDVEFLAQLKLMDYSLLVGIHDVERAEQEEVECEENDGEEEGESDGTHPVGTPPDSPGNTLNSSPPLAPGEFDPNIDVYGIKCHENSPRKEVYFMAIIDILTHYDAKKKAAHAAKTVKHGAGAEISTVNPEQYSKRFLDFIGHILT

C[C@H](NC(=O)c1c[nH]c2ccc(-c3ccc4nc(NC(=O)C5CC5)sc4c3)cc12)c1cccc(F)c1 [Compound 34, (S)-5-(2-(cyclopropanecarboxamido)benzo[d]thiazol-6-yl)-N-(1-(3-fluorophenyl)ethyl)-1H-indole-3-carboxamide]
Inhibition ratio (Flt3(h)): 79%
Inhibition ratio (GCK(h)): 62%
Inhibition ratio (PI3KC2a(h)): 16%
Inhibition ratio (A-Raf(h)): −1%
Inhibition ratio (Pim-2(h)): −5%
Inhibition ratio (PIP4K2a(h)): 17%
Inhibition ratio (ARK5(h)): 43%
Inhibition ratio (PIP5K1g(h)): 18%
Inhibition ratio (BIKe(h)): 8%
Inhibition ratio (BrSK1(h)): −28%
Inhibition ratio (BTK(R28H)(h)): 1%
Inhibition ratio (CaMKIIβ(h)): 21%
Inhibition ratio (JAK2(h)): 11%
Inhibition ratio (JAK3(h)): 23%
Inhibition ratio (JNK1α1(h)): 15%
Inhibition ratio (CaMKIV(h)): 20%
Inhibition ratio (JNK3(h)): 63%
Inhibition ratio (CDK1/cyclinB(h)): 13%
Inhibition ratio (Lyn(h)): 52%
Inhibition ratio (CDK7/cyclinH/MAT1(h)): 3%
Inhibition ratio (Rsk1(h)): 37%
Inhibition ratio (MARK3(h)): 0%
Inhibition ratio (SAPK2b(h)): 12%
Inhibition ratio (MEKK3(h)): 2%
Inhibition ratio (SAPK3(h)): 84%
Inhibition ratio (STK16(h)): 17%
Inhibition ratio (STK32C(h)): 3%
Inhibition ratio (Syk(h)): 98%
Inhibition ratio (DAPK1(h)): 12%
Inhibition ratio (DCAMKL2(h)): 6%
Inhibition ratio (EphB3(h)): 3%
Inhibition ratio (EphB4(h)): 11%
Inhibition ratio (ErbB2(h)): 10%
Inhibition ratio (PDHK4(h)): 72%

C[C@H](NC(=O)c1cn(C)c2ccc(-c3ccn4nc(NC(=O)C5CC5)nc4c3)cc12)c1cccc(F)c1 [Compound 94, (S)-5-(2-(cyclopropanecarboxamido)-[1,2,4]triazolo[1,5-a]pyridin-7-yl)-N-(1-(3-fluorophenyl)ethyl)-1-methyl-1H-indole-3-carboxamide]
Inhibition ratio/% (Flt3(h)): 27%
Inhibition ratio/% (GCK(h)): −6%
Inhibition ratio/% (PI3KC2a(h)): 40%
Inhibition ratio/% (A-Raf(h)): 10%
Inhibition ratio/% (Pim-2(h)): −14%
Inhibition ratio/% (PIP4K2a(h)): 7%
Inhibition ratio/% (ARK5(h)): 8%
Inhibition ratio/% (PIP5K1g(h)): −16%
Inhibition ratio/% (BIKe(h)): −2%
Inhibition ratio/% (BrSK1(h)): 31%
Inhibition ratio/% (BTK(R28H)(h)): 77%
Inhibition ratio/% (CaMKIIβ(h)): 78%
Inhibition ratio/% (JAK2(h)): 45%
Inhibition ratio/% (JAK3(h)): 38%
Inhibition ratio/% (JNK1α1(h)): 53%
Inhibition ratio/% (CaMKIV(h)): 21%
Inhibition ratio/% (JNK3(h)): 40%
Inhibition ratio/% (CDK1/cyclinB(h)): 78%
Inhibition ratio/% (Lyn(h)): 55%
Inhibition ratio/% (CDK7/cyclinH/MAT1(h)): 53%
Inhibition ratio/% (Rsk1(h)): 41%
Inhibition ratio/% (MARK3(h)): −3%
Inhibition ratio/% (SAPK2b(h)): 36%
Inhibition ratio/% (MEKK3(h)): 14%
Inhibition ratio/% (SAPK3(h)): 46%
Inhibition ratio/% (STK16(h)): 20%
Inhibition ratio/% (STK32C(h)): 22%
Inhibition ratio/% (Syk(h)): 69%
Inhibition ratio/% (DAPK1(h)): 40%
Inhibition ratio/% (DCAMKL2(h)): 74%
Inhibition ratio/% (EphB3(h)): 26%
Inhibition ratio/% (EphB4(h)): 56%
Inhibition ratio/% (ErbB2(h)): 47%
Inhibition ratio/% (PDHK4(h)): −18%

— patent publication US20230365546A1, “5-SUBSTITUTED INDOLE 3-AMIDE DERIVATIVES, PREPARATION METHOD AND USE THEREOF” (ORIGIANT PHARMACEUTICAL CO., LTD, priority 2020, published 2023)
